Several values for one entry are separate records, joined by “and”; a condition that tells them apart may be missing. Equal values may be shown once. No end group written: not given here.
Tested on: murine B16 melanoma cells
Assay: Anti-tumor efficacy (tumor size, tumor volume, tumor weight) in C57BL/6 mice bearing subcutaneous B16 melanoma
Assay type: in vivo
Conditions: for Tumor weights / PI (TW), percent inhibition of tumor weight vs vehicle: Day 17
Experimental: In this study, the anti-tumor effect of the combined treatment of thymosin alpha-1 (TA-1), Paclitaxel (Pac) and Elesclomol (Ele) was evaluated in C57BL/6 mice bearing B16 melanoma cells. The toxic effects of the dosing regimens were also monitored. A total of 60 mice were implanted subcutaneously with murine B16 cells, followed by treatment with TA-1 or Pac/Ele alone or in combination for 14 consecutive days. TA-1 was given daily via s.c., while Pac and Ele were co-i.v. administered on Day 1, 7 and 13. In total, 6 groups were used: Group 1: vehicle; Group 2: TA-1 6 mg/kg; Group 3: Pac 10 mg/kg+Ele 10 mg/kg; Group 4: Pac 30 mg/kg+Ele 30 mg/kg; Group 5: TA-1 6 mg/kg+Pac 10 mg/kg+Ele 10 mg/kg; and Group 6: TA-1 6 mg/kg+Pac 30 mg/kg+Ele 30 mg/kg. Tumor volume and body weight were measured every three days, and tumor weights were measured on Day 17 at the end of the study.
Murine B16 melanoma cells were thawed from the stock of Cell Culture Center, Institute of Basic Medical Sciences, Peking Union Medical College and Chinese Academy of Medical Sciences (PUMC & CAMS, Beijing, P. R. China). The tumor cells were adapted in C57BL/6 mice before use in the experiment (Refer to Section 4.3.1 for details on cell adaptation).
Using aseptic tissue culture procedures, one vial of B16 melanoma cells was removed from the liquid nitrogen stock, and placed into a 37° C. water bath. Gentle swirling was conducted until the content of the vial was thawed. Once thawed, the cells were immediately centrifuged with a TD5A-WS centrifuge at 1000 rpm, 20-25° C., 5 min. After centrifugation, the cells were suspended in […] normal saline (NS) and subcutaneously injected into 10 mice (0.1 mL/mouse, about 1×10^6 cells). After 7-10 days, when the tumor diameter was approximately 1 cm, the animals were euthanized with CO2 overdose and the tumors excised. The procedure was repeated with 20 mice to generate a sufficient number of B16 melanoma cells with adequate transplantability.
On the day of tumor implantation, approximately 1×10^6 cells in 0.1 mL were subcutaneously injected on the right axillary area of each mouse. The day of tumor implantation was defined as Day 0.
On Day 1, the animals were randomly assigned into different weight-matched groups, and dosing was started using the regimen according to Table 2. Briefly, TA-1 was administered once daily via subcutaneous (s.c.) injection for 14 consecutive days at a site different from that of tumor cell implantation, while Pac and Ele was administered on Days 1, 7, and 13 via an intravenous (i.v.) injection.
From Day 1 to Day 15, mortality and moribundity were checked twice daily, the body weights were recorded once every 3 days, and tumors were measured using a caliper once every 3 days. At the end of the study (Day 17), the animals were euthanized by CO2 asphyxiation, and the tumors were excised and weighed.
Based on the tumor size, the tumor volume (TV) was calculated with the formula: [TV=(Length×Width×Width)/2]. And the percent inhibition (PI) of TV (PITV) was calculated according to the equation below:
PITV(%)=(TV vehicle−TVdrug treated)/TV vehicle×100
The anti-tumor effect of the test article was further evaluated with tumor weight (TW) measured on day of necropsy (Day 17). The PI of TW was calculated using the equation below:
PITW(%)=100×(TW vehicle−TW drug treated)/TW vehicle
The calculations of PITV and PITW were performed using an Excel spreadsheet and reviewed by the Study Director and Study Monitor.
Inter-group comparison was performed in terms of tumor volume, tumor weight and body weight, using a student's t test. P values of less than 0.05 were considered to be statistically significant.

[1] = Day 3, individual animals F1-F5, M1-M5, low-dose arms: TA-1 6 mg/kg, Pac 10 + Ele 10 mg/kg
[2] = Day 3, low-dose arms: TA-1 6 mg/kg s.c. daily, Pac 10 + Ele 10 mg/kg co-i.v. Days 1, 7, 13
[3] = Day 6, individual animals F1-F5, M1-M5, low-dose arms: TA-1 6 mg/kg, Pac 10 + Ele 10 mg/kg
[4] = Day 6, low-dose arms: TA-1 6 mg/kg s.c. daily, Pac 10 + Ele 10 mg/kg co-i.v. Days 1, 7, 13
[5] = Day 9, individual animals F1-F5, M1-M5, low-dose arms: TA-1 6 mg/kg, Pac 10 + Ele 10 mg/kg
[6] = Day 9, low-dose arms: TA-1 6 mg/kg s.c. daily, Pac 10 + Ele 10 mg/kg co-i.v. Days 1, 7, 13
[7] = Day 12, low-dose arms: TA-1 6 mg/kg s.c. daily, Pac 10 + Ele 10 mg/kg co-i.v. Days 1, 7, 13
[8] = Day 15, low-dose arms: TA-1 6 mg/kg s.c. daily, Pac 10 + Ele 10 mg/kg co-i.v. Days 1, 7, 13

thymosin alpha 1 (SDAAVDTSSEITTKDLKEKKEVVEEAEN; ends and bridges not checked; UniProt P06454 2-29, looked up) [TA-1, 28 amino acid peptide with a molecular weight of 3108; immunomodulator]
Tumor measurements, L (length) [1]: 0.1 cm (2×) and 0.2 cm (2×) | Tumor measurements, W (width) [1]: 0.1 cm (2×) and 0.2 cm (2×) | Tumor volumes (Day 3, individual animals F1-F5, M1-M5, low-dose arms: TA-1 6 mg/kg, Pac 10 + Ele 10 mg/kg, female mice): 0 cm^3 (4×) and 0.0005 cm^3 | Tumor volumes (Day 3, individual animals F1-F5, M1-M5, low-dose arms: TA-1 6 mg/kg, Pac 10 + Ele 10 mg/kg, male mice): 0 cm^3 (2×) and 0.004 cm^3 (2×) and 0.0005 cm^3 | PI (TV), percent inhibition of tumor volume vs vehicle [2]: −50.00% | Tumor Volume (Mean ± SD) [2]: 0.0009 ± 0.0016 cm^3 | Tumor measurements, L (length) [3]: 0.3 cm and 0.2 cm (2×) and 0.1 cm | Tumor measurements, W (width) [3]: 0.3 cm and 0.2 cm (2×) and 0.1 cm | Tumor volumes (Day 6, individual animals F1-F5, M1-M5, low-dose arms: TA-1 6 mg/kg, Pac 10 + Ele 10 mg/kg, female mice): 0 cm^3 (4×) and 0.0135 cm^3 | Tumor volumes (Day 6, individual animals F1-F5, M1-M5, low-dose arms: TA-1 6 mg/kg, Pac 10 + Ele 10 mg/kg, male mice): 0 cm^3 (2×) and 0.004 cm^3 (2×) and 0.0005 cm^3 | PI (TV), percent inhibition of tumor volume vs vehicle [4]: 58.49% | Tumor Volume (Mean ± SD) [4]: 0.0022 ± 0.0043 cm^3 | Tumor volumes (Day 9, animal F1): 0.0005 cm^3 | Tumor volumes (Day 9, animal F2): 0 cm^3 | Tumor volumes (Day 9, animal F3): 0 cm^3 | Tumor volumes (Day 9, animal F4): 0 cm^3 | Tumor volumes (Day 9, animal F5): 0.0135 cm^3 | Tumor volumes (Day 9, animal M1): 0.004 cm^3 | Tumor volumes (Day 9, animal M2): 0.004 cm^3 | Tumor volumes (Day 9, animal M3): 0.004 cm^3 | Tumor volumes (Day 9, animal M4): 0 cm^3 | Tumor volumes (Day 9, animal M5): 0 cm^3 | Tumor measurements, L (length) [5]: 0.3 cm and 0.2 cm (3×) and 0.1 cm | Tumor measurements, W (width) [5]: 0.3 cm and 0.2 cm (3×) and 0.1 cm | PI (TV), percent inhibition of tumor volume vs vehicle [6]: 88.26% | Tumor Volume (Mean ± SD) [6]: 0.0026 ± 0.0043 cm^3 | Tumor measurements L (Day 12, animal F1): 0.1 cm | Tumor measurements W (Day 12, animal F1): 0.1 cm | Tumor volumes (Day 12, animal F1): 0.0005 cm^3 | Tumor measurements L (Day 12, animal F2): 0.2 cm | Tumor measurements W (Day 12, animal F2): 0.2 cm | Tumor volumes (Day 12, animal F2): 0.004 cm^3 | Tumor measurements L (Day 12, animal F3): 0.2 cm | Tumor measurements W (Day 12, animal F3): 0.2 cm | Tumor volumes (Day 12, animal F3): 0.004 cm^3 | Tumor measurements L (Day 12, animal F4): 0.1 cm | Tumor measurements W (Day 12, animal F4): 0.1 cm | Tumor volumes (Day 12, animal F4): 0.0005 cm^3 | Tumor measurements L (Day 12, animal F5): 0.3 cm | Tumor measurements W (Day 12, animal F5): 0.3 cm | Tumor volumes (Day 12, animal F5): 0.0135 cm^3 | Tumor measurements L (Day 12, animal M1): 0.2 cm | Tumor measurements W (Day 12, animal M1): 0.2 cm | Tumor volumes (Day 12, animal M1): 0.004 cm^3 | Tumor measurements L (Day 12, animal M2): 0.2 cm | Tumor measurements W (Day 12, animal M2): 0.2 cm | Tumor volumes (Day 12, animal M2): 0.004 cm^3 | Tumor measurements L (Day 12, animal M3): 0.2 cm | Tumor measurements W (Day 12, animal M3): 0.2 cm | Tumor volumes (Day 12, animal M3): 0.004 cm^3 | Tumor measurements L (Day 12, animal M4): 0.2 cm | Tumor measurements W (Day 12, animal M4): 0.2 cm | Tumor volumes (Day 12, animal M4): 0.004 cm^3 | Tumor measurements L (Day 12, animal M5): 0.1 cm | Tumor measurements W (Day 12, animal M5): 0.1 cm | Tumor volumes (Day 12, animal M5): 0.0005 cm^3 | PI (TV), percent inhibition of tumor volume vs vehicle [7]: 96.28% | Tumor Volume (Mean ± SD) [7]: 0.0039 ± 0.0038 cm^3 | Tumor measurements L (Day 15, animal F1): 0.3 cm | Tumor measurements W (Day 15, animal F1): 0.3 cm | Tumor volumes (Day 15, animal F1): 0.0135 cm^3 | Tumor measurements L (Day 15, animal F2): 0.3 cm | Tumor measurements W (Day 15, animal F2): 0.3 cm | Tumor volumes (Day 15, animal F2): 0.0135 cm^3 | Tumor measurements L (Day 15, animal F3): 0.5 cm | Tumor measurements W (Day 15, animal F3): 0.5 cm | Tumor volumes (Day 15, animal F3): 0.0625 cm^3 | Tumor measurements L (Day 15, animal F4): 0.3 cm | Tumor measurements W (Day 15, animal F4): 0.3 cm | Tumor volumes (Day 15, animal F4): 0.0135 cm^3 | Tumor measurements L (Day 15, animal F5): 0.6 cm | Tumor measurements W (Day 15, animal F5): 0.6 cm | Tumor volumes (Day 15, animal F5): 0.108 cm^3 | Tumor measurements L (Day 15, animal M1): 0.5 cm | Tumor measurements W (Day 15, animal M1): 0.5 cm | Tumor volumes (Day 15, animal M1): 0.0625 cm^3 | Tumor measurements L (Day 15, animal M2): 0.4 cm | Tumor measurements W (Day 15, animal M2): 0.4 cm | Tumor volumes (Day 15, animal M2): 0.032 cm^3 | Tumor measurements L (Day 15, animal M3): 0.6 cm | Tumor measurements W (Day 15, animal M3): 0.6 cm | Tumor volumes (Day 15, animal M3): 0.108 cm^3 | Tumor measurements L (Day 15, animal M4): 0.5 cm | Tumor measurements W (Day 15, animal M4): 0.5 cm | Tumor volumes (Day 15, animal M4): 0.0625 cm^3 | Tumor measurements L (Day 15, animal M5): 0.5 cm | Tumor measurements W (Day 15, animal M5): 0.5 cm | Tumor volumes (Day 15, animal M5): 0.0625 cm^3 | PI (TV), percent inhibition of tumor volume vs vehicle [8]: 85.60% | Tumor Volume (Mean ± SD) [8]: 0.0539 ± 0.0358 cm^3 | Tumor Weight (Mean ± SD) (Day 17 (necropsy), low-dose arms: TA-1 6 mg/kg s.c. daily, Pac 10 + Ele 10 mg/kg co-i.v. Days 1, 7, 13): 0.88 ± 0.34 g | Tumor weights (animal F1): 0.64 g | Tumor weights (animal F2): 0.5 g | Tumor weights (animal F3): 1.2 g | Tumor weights (animal F4): 0.62 g | Tumor weights (animal F5): 1.45 g | Tumor weights (animal M1): 0.69 g | Tumor weights (animal M2): 0.56 g | Tumor weights (animal M3): 1.36 g | Tumor weights (animal M4): 0.92 g | Tumor weights (animal M5): 0.89 g | PI (TW), percent inhibition of tumor weight vs vehicle (low-dose arms: TA-1 6 mg/kg s.c. daily, Pac 10 + Ele 10 mg/kg co-i.v. Days 1, 7, 13): 55.67% | PI (TW), percent inhibition of tumor weight vs vehicle (low-dose arms: TA-1 6 mg/kg s.c. daily, Pac 10 + Ele 10 mg/kg co-i.v. Days 1, 7, 13, listed as Group 2): 55.67% | mean tumor volume reduced in comparison to that of the vehicle control group (throughout the course of the study, TA-1 6 mg/kg s.c. daily): more than 50%
